{
  "source": "patent US9725430B2",
  "about": "“Use of small molecule inhibitors targeting EYA tyrosine phosphatase” (Children's Hospital Medical Center, priority 2013, dated 2017)",
  "tested_on": "retinal vasculature",
  "assay": "Post-natal retinal angiogenesis in mice",
  "format": "in vivo",
  "protocol": "Next, retinal blood vessel density and angiogenic extension were studied using induced deletion of Eya3 in mice by PDGFB-icreERT2 starting at the day of birth. Isolectin labeled retinal blood vessels at postnatal day 5 in control Eya3fl/fl (FIGS. 8b and 8d) and experimental Eya3fl/fl; PDGFB-icreERT2 (FIGS. […]) mice. FIGS. 8d and 8e are magnified images of the regions indicated in 8b and 8c, respectively.\nNext, treatment with an inhibitor of Eya3 was performed to test the effect on post-natal retinal angiogenesis. Briefly, 100 μM of compound 1a was injected into the eyes of post-natal mice, at P0.5 and P3. P5 retinas were then analyzed for effects on the retinal vasculature.",
  "data": [
    {"smiles": "CCc1oc2ccccc2c1C(=O)c1ccc(O)cc1", "note": "[Compound 1a]", "values": [
      {"measurement": "retinal vasculature branch points", "setting": "100 μM injected into eyes at P0.5 and P3, P5 retinas", "result": "quantifiable decrease in branch points"},
      {"measurement": "retinal angiogenesis in VEC-specific Eya3 knockout model", "setting": "normal oxygen conditions", "result": "additional significant reduction in retinal angiogenesis"}
    ]}
  ]
}
